US9512106B2, “Smoothened modulators and methods of use thereof” (Duke University, priority 2012, dated 2016)
Read-outs that look alike come from different tables or passages of the source.

Legend:
Hh-induced hair growth = test: Hair regrowth after depilation, topical treatment; type: in vivo, mouse; details: C57BL/6 female mice, 0.5 mM, 30 μl topically daily for two weeks
Protocol: Eight-week-old C57BL/6 female mice were shaved on the dorsal surface and depilated with Nair® (Carter-Wallace, New York, N.Y.). Briefly, the bottom half of the shaved area was treated with Nair for 2 min, and the depilated area rinsed with water to remove residual Nair. Compound A8 was dissolved in a vehicle of 95% acetone/5% DMSO at a concentration of 0.5 mM, and 30 μl of A8 solution or the vehicle were applied topically to the depilated area of mice daily for two weeks. Mice were anesthetized briefly using 3% isoflurane anesthetic inhalant during all procedures. Five mice were included in each treatment group. All animals were treated in accordance with protocols approved by Institutional Animal Care and Use Committee at Duke University.
Hedgehog signaling plays a key role in regulating hair follicle growth40. To determine the efficacy of the novel Smo inhibitor A8 in suppressing Hh signaling in vivo, we used a model of hedgehog inhibition that examines inhibition of hair-growth41-43. Eight-week old Female C57BL mice in telogen phase of the hair cycle were used in these experiments44. Chemical depilation with Nair® induces anagen phase and regrowth of hair by activating the Hh signaling pathway. In our experiments, most of the hair on the back of vehicle treated mice grew back 2 weeks after removal with Nair (data not shown).

wild-type Smo = target: T1, wild-type Smo (Homo sapiens, UniProt Q99835); test: [3H]-cyclopamine competitive binding, wild-type Smo; details: 25 nM [3H]-cyclopamine; for displacement of [3H]-cyclopamine from wild-type Smo: U2OS cells overexpressing wild-type Smo; for Ki: fixed U2OS cells overexpressing wild-type Smo, mean±SEM, read-out: Ki, displacement of [3H]-cyclopamine from Smo
T1 construct: expressed in transfected cells; host or cells: U2OS
Protocol: (§1) FIG. 3. […] The displacement data were analyzed by fitting to a one-site competition curve using Graphpad Prism. Data were acquired in triplicates from three independent experiments and are presented as the mean±SEM.
(§2) For competitive binding assays, U2OS cells overexpressing wild-type Smo or Smo-D473H mutant receptors were grown in 24-well plates and fixed with 4% (v/v) formaldehyde/PBS for 20 min at room temperature (RT).

Smo-633 = target: T2, Smo-633 (Homo sapiens, UniProt Q99835); test: Smo/βarr2-GFP translocation high-throughput imaging assay (antagonist mode); type: cell-based; details: for inhibition of intracellular βarr2-GFP aggregation: U2OS cells with Smo-633 and βarr2-GFP, 5 μM
T2 construct: expressed in transfected cells
Text: U2OS cells stably expressing a chimera Smo-633 receptor and βarr2-GFP were used in HTS screening.
To identify novel Smo inhibitors, we screened chemical libraries using our confocal imaging, cell-based platform assay as the primary high-throughput screening assay. […] Thus, small molecule inhibitors of Smo are identified by the loss of the punctate pattern.
To control for receptor specificity and to rule-out non-specific mechanisms, hits were cross-screened in the same assay format using the vasopressin2 receptor (V2R), a different seven-transmembrane receptor. In this control assay, cells transfected with V2R and βarr2-GFP are stimulated with the agonist arginine vasopressin. […] This control assay helps ensure the mechanism of inhibition is Smo receptor specific and allows molecules with non-specific mechanisms of inhibition to be ruled-out.

[1] = test system: Shh-induced Gli reporter activity; test: Gli-luciferase reporter assay in Shh-LIGHT2 cells; type: cell-based
Protocol: FIG. 4. […] Cells were then exposed to [3H]-thymidine for 16 h and [3H]-thymidine incorporation was measured. Data were fit using Graphpad Prism (mean±SEM, n=3).
The Gli-luciferase assay was conducted in Shh-LIGHT2 cells, a clonal NIH3T3 cell line stably incorporating Gli-dependent firefly luciferase and constitutive Renilla luciferase reporters35. Cells were treated with purified Sonic Hedgehog protein (50 ng/mL) together with the corresponding compounds for 2 days. The reporter activity was determined by using the Dual-Luciferase Reporter Assay System (Promega).

Smo-D473H = target: T3, Smo-D473H (Homo sapiens, UniProt Q99835, D473H); test: [3H]-cyclopamine competitive binding, Smo-D473H mutant; details: for competition for binding / displacement of [3H]-cyclopamine from Smo-D473H: U2OS cells overexpressing Smo-D473H
T3 construct: expressed in transfected cells; host or cells: U2OS
Protocol: as §1, §2

[2] = Storage of the active impurity in solution, activity retained; type: physicochemical; details: room temperature, DMSO or methanolic solution, 1 week
Text: Subsequent characterization of this impurity by high-resolution mass spectrometry (HRMS) and by extensive NMR analysis allowed assignment of structure to the impurity as shown for Compound A8 (FIG. 2A). Confirmation of the structural assignment was achieved by synthesis of authentic material using the route described in FIG. 2B. Synthesized material matched the isolated material from the library sample by extensive NMR analysis, HRMS, TLC and HPLC.

[3] = test system: cerebellar granular cell precursor (GCP) cells; test: GCP cell proliferation ([3H]-thymidine incorporation); type: cell-based, mouse; details: read-out: IC50, inhibition of GCP proliferation
Protocol: FIG. 4. Compound A8 inhibits Gli-reporter activity and GCP proliferation. […] Cells were then exposed to [3H]-thymidine for 16 h and [3H]-thymidine incorporation was measured. Data were fit using Graphpad Prism (mean±SEM, n=3).
Primary neuronal granular cell precursor (GCP) cells were obtained from the cerebellum of 7-day postnatal C57BL/6 mice and labeled with [3H]-thymidine. Proliferation assays were performed as previously described28.

[4] = target: T4, vasopressin2 receptor (V2R) (Homo sapiens, UniProt P30518); details: cells transfected with V2R and βarr2-GFP, arginine vasopressin stimulated; cited from earlier work
T4 construct: expressed in transfected cells

[5] = mouse GCP cells, 48 hours with Shh, then [3H]-thymidine 16 h, mean±SEM, n=3

T1 sequence (Q99835 28-787): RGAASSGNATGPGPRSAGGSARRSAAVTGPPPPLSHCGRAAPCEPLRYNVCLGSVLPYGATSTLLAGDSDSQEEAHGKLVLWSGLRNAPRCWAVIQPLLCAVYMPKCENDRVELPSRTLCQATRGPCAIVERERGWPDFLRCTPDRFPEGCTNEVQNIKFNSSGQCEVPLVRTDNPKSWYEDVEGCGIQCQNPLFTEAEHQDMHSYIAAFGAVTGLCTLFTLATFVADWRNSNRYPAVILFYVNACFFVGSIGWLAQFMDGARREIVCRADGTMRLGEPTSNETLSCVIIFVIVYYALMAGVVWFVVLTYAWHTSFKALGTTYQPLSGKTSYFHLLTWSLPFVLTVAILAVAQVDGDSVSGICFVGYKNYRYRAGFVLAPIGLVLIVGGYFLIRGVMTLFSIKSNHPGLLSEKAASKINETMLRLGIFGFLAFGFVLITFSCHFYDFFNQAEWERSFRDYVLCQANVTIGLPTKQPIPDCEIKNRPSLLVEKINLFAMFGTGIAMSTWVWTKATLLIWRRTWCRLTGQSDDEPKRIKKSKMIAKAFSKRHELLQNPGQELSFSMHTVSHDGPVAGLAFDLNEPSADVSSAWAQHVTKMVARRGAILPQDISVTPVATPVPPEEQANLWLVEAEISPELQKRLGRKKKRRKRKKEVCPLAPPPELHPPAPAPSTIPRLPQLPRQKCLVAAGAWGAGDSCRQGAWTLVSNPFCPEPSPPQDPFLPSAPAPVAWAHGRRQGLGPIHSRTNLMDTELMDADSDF
T3 sequence (Q99835 28-787 D473H): as the sequence (Q99835 28-787) above, with D446H counted along it
T2 sequence (Q99835 with tags, fused parts or gaps limits assumed): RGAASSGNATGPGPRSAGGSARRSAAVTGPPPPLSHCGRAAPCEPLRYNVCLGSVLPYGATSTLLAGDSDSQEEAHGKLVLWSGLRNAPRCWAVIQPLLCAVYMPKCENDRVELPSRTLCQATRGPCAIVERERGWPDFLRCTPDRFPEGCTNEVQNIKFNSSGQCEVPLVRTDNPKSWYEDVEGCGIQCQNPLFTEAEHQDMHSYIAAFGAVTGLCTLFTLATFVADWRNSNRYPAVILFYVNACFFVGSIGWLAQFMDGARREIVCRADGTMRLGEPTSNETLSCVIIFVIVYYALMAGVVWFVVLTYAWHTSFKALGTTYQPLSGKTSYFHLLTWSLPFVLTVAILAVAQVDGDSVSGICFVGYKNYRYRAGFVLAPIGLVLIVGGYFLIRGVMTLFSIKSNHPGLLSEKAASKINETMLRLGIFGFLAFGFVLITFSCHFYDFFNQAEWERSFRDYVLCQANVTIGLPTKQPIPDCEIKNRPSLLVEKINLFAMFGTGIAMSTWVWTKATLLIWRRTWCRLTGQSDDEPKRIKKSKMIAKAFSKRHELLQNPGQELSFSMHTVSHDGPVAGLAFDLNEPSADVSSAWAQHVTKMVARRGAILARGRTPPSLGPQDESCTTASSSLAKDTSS
T4 sequence (P30518 whole entry, species assumed): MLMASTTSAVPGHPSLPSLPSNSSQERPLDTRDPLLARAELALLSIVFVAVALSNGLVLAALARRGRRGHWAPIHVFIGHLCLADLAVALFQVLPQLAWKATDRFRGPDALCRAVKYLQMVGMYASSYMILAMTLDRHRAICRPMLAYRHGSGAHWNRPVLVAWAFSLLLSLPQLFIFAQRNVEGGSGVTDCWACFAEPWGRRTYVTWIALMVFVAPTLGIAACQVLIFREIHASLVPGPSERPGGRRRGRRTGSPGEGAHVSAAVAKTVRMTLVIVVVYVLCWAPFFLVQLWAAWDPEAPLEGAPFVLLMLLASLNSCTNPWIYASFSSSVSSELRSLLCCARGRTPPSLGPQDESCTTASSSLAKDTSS

SMILES	displacement of [3H]-cyclopamine from wild-type Smo (wild-type Smo)	Ki (wild-type Smo)	inhibition of intracellular βarr2-GFP aggregation (Smo-633)	competition for binding / displacement of [3H]-cyclopamine from Smo-D473H (Smo-D473H)	IC50 [3, 5]	other results
O=C(NC1CCN(Cc2ccc(N3CCC(NC(=O)c4cccc(-c5cccnc5)c4)CC3)nc2)CC1)c1cccc(-c2cccnc2)c1 [Compound A8]	completely displaced	37.9 ± 3.7 nM	activity of the synthesized material was confirmed	completely displace	16.6 ± 2.3 nM	Hh-induced hair growth (Hh-induced hair growth): largely inhibited; IC50 ([1]; Shh-LIGHT2 cells, Sonic Hedgehog 50 ng/mL, mean±SEM, n=3, read-out: IC50, inhibition of Shh-induced Gli reporter activity): 2.6 ± 0.4 nM; Ki (Smo-D473H; fixed U2OS cells overexpressing Smo-D473H, 25 nM [3H]-cyclopamine, mean±SEM, read-out: Ki, displacement of [3H]-cyclopamine from Smo-D473H receptors): 478 ± 123 nM; activity after storage in solution [2]: retained activity
CS(=O)(=O)c1ccc(C(=O)Nc2ccc(Cl)c(-c3ccccn3)c2)c(Cl)c1 [GDC-0449]	completely displaced	–	–	largely ineffective	16.4 ± 2.5 nM	displacement of [3H]-cyclopamine from Smo-D473H at high concentration (Smo-D473H; 10 μM compound): only partially displaced
Cc1c(C(=O)Nc2ccc(N3C[C@@H](C)O[C@@H](C)C3)nc2)cccc1-c1ccc(OC(F)(F)F)cc1 [LDE-225]	completely displaced	6 ± 1.4 nM	–	largely ineffective	–	–
CCN(C)Cc1ccc(N2CCC(NC(=O)c3cccc(-c4cccnc4)c3)CC2)nc1 [Tripos 3910]	–	–	–	–	–	Smo antagonist activity of resynthesized sample compared to previous test samples (Smo-633; material synthesized at Duke, assay not specified): substantially reduced Smo antagonist activity
CC1=C2C[C@H]3[C@@H](CC=C4C[C@@H](O)CC[C@@]43C)[C@@H]2CC[C@]12O[C@@H]1C[C@H](C)CN[C@H]1[C@H]2C [cyclopamine]	completely displaced	–	inhibits the aggregation of βarr2-GFP	completely displace	–	inhibition of aggregation of V2R and βarr2-GFP [4]: not inhibited; inhibition of the Gli-reporter activity ([1]; 1 μM concentration): strong inhibition; IC50 ([3]; Mus musculus): 414 ± 73 nM
